# Data: EP0932388B1, “DOSAGE FORM AND METHOD FOR ADM[…]” (ALZA CORPORATION, priority 1996, dated 1998)
# System: school children
# Test: clinical study of methylphenidate release profiles (SKAMP and CLAM ratings, mathematics test, activity monitor)
# Assay type: in vivo
# Settings: oral
# Experimental: The CLAM Test is a behavior rating that indicates social conformity or rebellion as developed by Conners, Lonez, and Milch and SKAMP is a rating that also measures behavior as developed by Swanson and reported in Psychopharmacological Bulletin, Vol. 21, pp. 887-890 (1985).
# The effect measurements in this study were: (1) observer ratings on SKAMP scale (during classroom time) and (2) performance on the computerized mathematics test. Each child was tested on the mathematics test before the study began, and based on this pre-test during the study, a mathematics test appropriate for each child's ability was given. The morning and evening parent CLAM assessments were used to identify unusual behaviors. The evening parent CLAM was used to determine the presence of treatment effects in the evening hours, particularly treatment effects on the time the child fell asleep, and whether the child's sleep was interrupted. All of the children also wore an activity monitor (Actigraph) which records the movements of the child throughout the day. The activity (number of movements per minute) is recorded electronically and modeled as a function of the drug effect.
# The immediate release tablet and the sustained-release dosage form were compared to a sustained-release dosage form that administered methylphenidate in an ascending profile. The sustained-release ascending profile corresponds to administering 4.2 mg at zero hour, 1.1 mg at 1.5 hours, 1.1 mg at 2 hours, 1.2 mg at 2.5 hours, 1.2 mg at 3.0 hours, 1.3 mg at 3.5 hours, 1.3 mg at 4 hours, 1.5 mg at 4.5 hours, 1.5 mg at 5 hours, 1.8 mg at 5.5 hours, 1.8 mg at 6 hours, and 2.0 mg at 6.5 hours, to produce the sustained-ascending release dotted line profile seen in Figure 2.
# The accompanying figures present the results of the above-described study. […]
compound,measurement,setting,value
COC(=O)C(c1ccccc1)C1CCCCN1 (stereo not drawn) [methylphenidate],therapeutic effect and tolerance,controlled-sustained ascending profile of methylphenidate,desired therapeutic effect without tolerance
same,acute tolerance,sustained-nonascending dose of methylphenidate (20 mg program),development of acute tolerance
same,"behavior, activity and mathematical scores","sustained-nonascending dose of methylphenidate (20 mg program), versus placebo","a decrease in activity, higher mathematical scores and a lessening of inappropriate behavior"
